Test results reported in ChEMBL document CHEMBL1649502, “Characterization of cefoxitin-resistant Escherichia coli isolates from recreational beaches and private drinking water in Canada between 2004 and 2006” (2009).

Test system: Escherichia coli
Assay: Antibacterial activity against cefoxitin-resistant Escherichia coli by microdilution method
Format: functional

Compound | MIC [mg/L]
CO[C@@]1(NC(=O)Cc2cccs2)C(=O)N2C(C(=O)O)=C(COC(N)=O)CS[C@@H]21 [CEFOXITIN] | ≥ 16
CN[C@@H]1[C@H](O[C@H]2[C@H](O[C@H]3[C@H](O)[C@@H](O)[C@H](N=C(N)N)[C@@H](O)[C@@H]3N=C(N)N)O[C@@H](C)[C@]2(O)C=O)O[C@@H](CO)[C@H](O)[C@H]1O [STREPTOMYCIN] | ≥ 64
CO/N=C(\C(=O)N[C@@H]1C(=O)N2C(C(=O)O)=C(CSC(=O)c3ccco3)CS[C@H]12)c1csc(N)n1 [CEFTIOFUR] | ≥ 8
